Patent publication US12084436B2, “Heterocyclic compound” (Takeda Pharmaceutical Company Limited, priority 2019, dated 2024)

Target: T1, HDAC6 enzyme (Homo sapiens, UniProt Q9UBN7)
T1 construct: prepared by transducing full length HDAC6 gene into Sf-9 insect cells; GST; purchased SignalChem; host or cells: Sf-9 insect cells
T1 sequence (Q9UBN7 1-1215): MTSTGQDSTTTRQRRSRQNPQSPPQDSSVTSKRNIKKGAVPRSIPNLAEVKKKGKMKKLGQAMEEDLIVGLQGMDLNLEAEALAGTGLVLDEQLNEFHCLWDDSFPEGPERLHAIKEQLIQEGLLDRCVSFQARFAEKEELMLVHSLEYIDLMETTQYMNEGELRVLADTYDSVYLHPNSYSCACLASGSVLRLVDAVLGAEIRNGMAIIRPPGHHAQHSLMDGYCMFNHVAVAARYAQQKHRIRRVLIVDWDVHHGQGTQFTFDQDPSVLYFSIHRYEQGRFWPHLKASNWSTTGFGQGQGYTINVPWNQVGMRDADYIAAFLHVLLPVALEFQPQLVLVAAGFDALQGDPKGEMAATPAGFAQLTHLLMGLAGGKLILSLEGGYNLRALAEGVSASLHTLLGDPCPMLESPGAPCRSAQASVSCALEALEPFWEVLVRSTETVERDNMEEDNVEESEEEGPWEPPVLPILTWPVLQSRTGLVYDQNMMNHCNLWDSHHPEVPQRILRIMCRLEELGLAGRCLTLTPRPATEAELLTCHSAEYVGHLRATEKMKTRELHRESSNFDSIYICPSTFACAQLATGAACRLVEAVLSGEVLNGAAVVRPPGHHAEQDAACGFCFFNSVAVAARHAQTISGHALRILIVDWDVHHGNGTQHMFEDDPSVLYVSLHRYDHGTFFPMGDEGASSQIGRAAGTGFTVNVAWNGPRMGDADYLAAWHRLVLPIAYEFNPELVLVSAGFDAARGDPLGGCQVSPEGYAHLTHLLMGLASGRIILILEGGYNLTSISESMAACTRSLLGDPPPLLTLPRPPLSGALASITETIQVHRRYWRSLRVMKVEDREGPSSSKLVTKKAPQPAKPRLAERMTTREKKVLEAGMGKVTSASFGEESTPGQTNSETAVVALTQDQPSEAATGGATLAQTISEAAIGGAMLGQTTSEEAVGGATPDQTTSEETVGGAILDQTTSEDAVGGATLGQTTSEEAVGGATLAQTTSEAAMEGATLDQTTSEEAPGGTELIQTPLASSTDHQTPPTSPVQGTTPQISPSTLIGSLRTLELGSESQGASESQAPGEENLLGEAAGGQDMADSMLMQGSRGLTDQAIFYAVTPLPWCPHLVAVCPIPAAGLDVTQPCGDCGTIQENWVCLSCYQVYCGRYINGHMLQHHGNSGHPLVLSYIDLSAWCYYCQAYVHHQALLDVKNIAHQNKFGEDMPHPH
Experiment: HDAC6 enzyme inhibitory assay (HDAC-Glo I/II Assay kit, luminescence)
Format: biochemical
Conditions: 10 μM test compound; wells without enzyme = 100% inhibition; read-out: HDAC6 inhibitory rate (%) (10 μM)
Method: HDAC6 Enzyme Inhibitory Assay
HDAC6 enzyme prepared by transducing full length HDAC6 gene into Sf-9 insect cells and purifying by GST affinity column were purchased from SignalChem. Using this enzyme, HDAC6 enzyme inhibitory activities of the compound of the present invention were evaluated. Enzymes were used after preserved at −70° C. HDAC6 enzyme inhibitory activity of the compound of the present invention was measured using HDAC-Glo™ I/II Assay kit (Promega) according to the following experimental method. The test compound diluted with assay buffer (24 mM Tris-HCl (pH 7.5), 1 mM MgCl2, 0.35 mM KCl, 135 mM NaCl, 0.6 mM Glutathione, 0.01% Tween-20) was added to a 384-well plate by each 2 μL. Then, HDAC6 enzyme solution diluted with assay buffer was added thereto by each 4 μL, and the plate was incubated at room temperature for 60 min. After incubated, HDAC substrate-Developer solution prepared according to Promega protocol attached to the assay kit was added to the 384-well plate by each 2 μL, and the enzyme reaction was started. After reacting at room temperature for 20 min, luminescence level was measured using plate reader Envision (PerkinElmer). The inhibitory activity of each compound of Example was calculated as a relative activity value when luminescence level in wells without enzyme is considered as 100% inhibition.

| inhibition at 10 µM [%] | SMILES |
| --- | --- |
| 99 | Fc1cc(-c2nnc(C(F)F)o2)cc(-c2nccn2Cc2ccc(F)c(Cl)c2)c1 [Example 68a, 2-(3-{1-[(3-chloro-4-fluorophenyl)methyl]-1H-imidazol-2-yl]-5-fluorophenyl)-5-(difluoromethyl)-1,3,4-oxadiazole] |
| 98 | FC(F)c1nnc(-c2cccc(-c3nccn3Cc3ccccc3)c2)o1 [Example 70a, 2-[3-(1-benzyl-1H-imidazol-2-yl)phenyl]-5-(difluoromethyl)-1,3,4-oxadiazole] |
| 99 | CN(Cc1ccc(C(F)F)cc1)N1Cc2ccc(-c3nnc(C(F)F)o3)cc2C1=O [Example 57c, 6-[5-(difluoromethyl)-1,3,4-oxadiazol-2-yl]-2-[{[4-(difluoromethyl)phenyl]methyl} (methyl)amino]-2,3-dihydro-1H-isoindol-1-one] |
| 99 | CN1C(=O)c2cc(-c3nnc(C(F)F)o3)ccc2OC1(C)c1ccc(OC(F)(F)F)cc1 (centres unmarked) [Example 21b, 6-[5-(difluoromethyl)-1,3,4-oxadiazol-2-yl]-2,3-dimethyl-2-[4-(trifluoromethoxy)phenyl]-2,3-dihydro-4H-1,3-benzoxazin-4-one] |
| 92 | O=C1c2cc(-c3nnc(C(F)F)o3)ccc2CN1Nc1ccc(F)cc1 [Example 30c, 6-[5-(difluoromethyl)-1,3,4-oxadiazol-2-yl]-2-(4-fluoroanilino)-2,3-dihydro-1H-isoindol-1-one] |
| 99 | CN(CC1CC(F)(F)C1)N1Cc2ccc(-c3nnc(C(F)F)o3)cc2C1=O [Example 64c, 2-{[(3,3-difluorocyclobutyl)methyl] (methyl)amino}-6-[5-(difluoromethyl)-1,3,4-oxadiazol-2-yl]-2,3-dihydro-1H-isoindol-1-one] |
| 100 | CC(c1cccc(F)c1)n1ccnc1-c1cc(-c2nnc(C(F)F)o2)ccn1 (centres unmarked) [Example 92a, 4-[5-(difluoromethyl)-1,3,4-oxadiazol-2-yl]-2-{1-[1-(3-fluorophenyl)ethyl]-1H-imidazol-2-yl}pyridine] |
| 96 | CC(C)(C)OC(=O)N1CCCC1COc1cccnc1-c1cc(F)cc(-c2nnc(C(F)F)o2)c1 (centres unmarked) [Example 17a] |
| 99 | CC(C)(C)OC(=O)NN1Cc2ccc(-c3nnc(C(F)F)o3)cc2C1=O [Example 3c, tert-butyl {6-[5-(difluoromethyl)-1,3,4-oxadiazol-2-yl]-1-oxo-1,3-dihydro-2H-isoindol-2-yl}carbamate] |
| 99 | O=C(OCC(F)F)N(Cc1cnn(C2CC2)c1)N1Cc2ccc(-c3nnc(C(F)F)o3)cc2C1=O [Example 13c, 2,2-difluoroethyl [(1-cyclopropyl-1H-pyrazol-4-yl)methyl]{6-[5-(difluoromethyl)-1,3,4-oxadiazol-2-yl]-1-oxo-1,3-dihydro-2H-isoindol-2-yl}carbamate] |
| 101 | Fc1cccc(Cn2ncnc2-c2cc(-c3nnc(C(F)F)o3)ccn2)c1 [Example 85a, 4-[5-(difluoromethyl)-1,3,4-oxadiazol-2-yl]-2-{1-[(3-fluorophenyl)methyl]-1H-1,2,4-triazol-5-yl}pyridine] |
| 98 | Fc1cc(-c2nnc(C(F)F)o2)cc(-c2nccn2Cc2cscn2)c1 [Example 60a, 2-(difluoromethyl)-5-(3-fluoro-5-{1-[(1,3-thiazol-4-yl)methyl]-1H-imidazol-2-yl}phenyl)-1,3,4-oxadiazole] |
| 99 | O=C1c2cc(-c3nnc(C(F)F)o3)ccc2CN1N(CCC1CCOCC1)Cc1ccc(F)cc1 [Example 21c, 6-[5-(difluoromethyl)-1,3,4-oxadiazol-2-yl]-2-{[(4-fluorophenyl)methyl][2-(oxan-4-yl)ethyl]amino}-2,3-dihydro-1H-isoindol-1-one] |
| 99 | CN(Cc1ccc2nccn2c1)N1Cc2ccc(-c3nnc(C(F)F)o3)cc2C1=O [Example 45c, 6-[5-(difluoromethyl)-1,3,4-oxadiazol-2-yl]-2-{[(imidazo[1,2-a]pyridin-6-yl)methyl](methyl)amino}-2,3-dihydro-1H-isoindol-1-one] |
